Source: US20210071183A1, “ZINC ASSOCIATED TREATMENT FOR AND DIAGNOSIS OF CACHEXIA” (THE TRUSTEES OF COLUMBIA UNIVERSITY IN THE CITY OF NEW YORK, priority 2018, published 2021)
Where a SMILES comes first, the peptide text is derived from it. The star is where a group is joined. Cbz = O=C(OCc1ccccc1)*

Key:
[1] = system: Zip14 expression; test: Zip14 qRT-PCR in human primary skeletal myoblasts treated with cytokines and signaling pathway inhibitors; assay type: cell-based; conditions: human primary muscle cells; for Zip14 expression after recombinant cytokine treatment: TNFα 50 ng/ml, TGFβ 10 ng/ml
Protocol: (§1) Treatment with cytokines and signaling pathway inhibitors: Murine C2C12 myoblasts and human primary skeletal myoblasts were serum-starved overnight, and then treated with or without inhibitors of the TGFβ/Smad, […] pathways, which are SB431542 (purchased from Thermo Fisher), CC401 (purchased from Thermo Fisher) and BAY 11-7085 (purchased from Enzo), respectively, followed by treatment with recombinant cytokines purchased from R&D Systems (recombinant mouse TNFα and TGFβ1 at 50 ng/ml and 10 ng/ml, respectively, for C2C12, recombinant human TNFα and TGFβ1 at 50 ng/ml and 10 ng/ml, respectively, for human primary skeletal myoblasts). Cells were pretreated with either vehicle (DMSO) control, or 10 μM of the respective pathway inhibitors for 1 hour, and then treated with TGFβ1 for 9 hours or TNFα for 3 hours before harvest. Cells with different treatments were harvested together for subsequent analysis.

[2] = system: Zip14 expression; test: Zip14 qRT-PCR in murine C2C12 myoblasts treated with cytokines and signaling pathway inhibitors; assay type: cell-based, mouse; conditions: for Zip14 expression after recombinant cytokine treatment: murine C2C12 myoblasts, TNFα 50 ng/ml, TGFβ 10 ng/ml
Protocol: as §1

[3] = system: 4T1 tumor-bearing mice; test: Zinc chelator injection in 4T1 tumor-bearing mice; assay type: in vivo, mouse; conditions: 150 mg/kg body weight daily from 7 days post-tumor cell injection, 4 weeks
Protocol: The effects of zinc chelator injection were analyzed using healthy or C26m2 tumor bearing mice. Excess zinc supplementation exacerbates muscle wasting, while zinc chelation reduces muscle wasting in tumor-bearing mice. […] (A-B) Healthy or C26m2 tumor bearing mice of the indicated genotypes (Zip14 WT or KO) were either treated with regular or zinc-enriched water (25 mM) from the day of tumor cell injection and muscles were collected after […]. Body weight analysis (A) and relative MuRF1/MAFBx mRNA expression levels indicative of muscle wasting (B) are shown. C. Mice were injected with 4T1 tumor cells and were divided into 3 groups, one was provided with regular diet with 86 ppm zinc, second group with 1000 ppm zinc-supplemented diet (high zinc diet) and third group with regular diet with 86 ppm zinc but with zinc chelator injected daily with Sodium diethyldithiocarbamate trihydrate (DEDTC) at 150 mg/kg body weight injected 7 days post-tumor cell injection. Mice were sacrificed after 4 weeks post-tumor cell injection. In all experiments, n=3-8 per group. ns, not significant. *p≤0.05, **p≤0.01, ***p≤0.001 and ****p≤0.0001.

[4] = system: myosin heavy chain (MyHC); test: Zinc and MG132 treatment of differentiated C2C12 muscle cells (immunoblot of myofibrillar proteins); assay type: cell-based, mouse
Protocol: (§2) Zinc and MG132 treatment of muscle cells: 3-day differentiated C2C12 cells were cultured with 50 μM ZnCI2 in differentiation medium for 24 hours. Cells were then used for immunofluorescence staining, gene expression analysis and immunoblot analysis. For MG-132 (benzyloxycarbonylleucyl-leucyl-leucine aldehyde, a proteasome inhibitor) treatment, 3-day differentiated C2C12 cells expressing Zip14 (Adeno-Zip14) were treated with 50 μM ZnCI2 for 24 hours, and then treated with either vehicle (DMSO) or MG132 (50 μM) for 3 hours prior to harvest for immunoblot analysis.
Subcellular fractionation of differentiated C2C12 muscle cells: Fractionation of soluble and myofibrillar components was performed. Differentiated C2C12 muscle cells were collected in cold lysis buffer (20 mM of Tris-HCl pH 7.2, 5 mM of EGTA, 100 mM of KCl, 1% Triton X-100, and 1× protease and phosphatase inhibitor cocktail), and lysed by gentle agitation at 4° C. for 1 h. After centrifugation at 3,000×g for 30 mins at 4° C., the cytosolic fraction (supernatant) was collected and stored in −80° C. The pellet (myofibrils) was washed twice with wash buffer (20 mM of Tris-HCl, pH 7.2, 100 mM of KCl, and 1 mM of DTT). After centrifugation at 3,000×g for 10 mins at 4° C., myofibrillar fraction was extracted in ice-cold extraction buffer (0.6 M of KCl, 1% Triton X-100, 2 mM of EDTA, 1 mM of DTT and 1× protease and phosphatase inhibitor cocktail) with shaking at 4° C. The purified myofibrillar fraction was collected after centrifugation for 3,000×g at 4° C. and stored in −80° C. until further use.

[5] = system: C26m2 tumor-bearing Zip14 WT and KO mice; test: Zinc-supplemented water treatment for mice; assay type: in vivo, mouse
Protocol: (§3) Zinc-supplemented water treatment for mice: ZnS04 solution was purchased from Sigma. Zip14 WT and KO mice were given either regular water or zinc-supplemented drinking water (25 mM ZnS04 in their drinking water). Zinc water was started from the day of tumor injection in the tumor-bearing group and in matched uninjected controls, which continued until the animals were euthanized at 15 days. Tumors were not resected because cachectic symptoms started to develop early and were visible between 8-10 days in the tumor-bearing Zip14 WT group of mice on zinc-enriched water.

[6] = system: Zip14-expressing myoblasts; test: Muscle differentiation assays with zinc; assay type: cell-based, mouse
Protocol: Adenoviral infection: C2C12 cells or mouse primary myoblasts were cultured overnight. C2C12 cells were infected with adenovirus expressing either GFP (green fluorescent protein) control (Adeno-GFP) or mouse Zip14 (Adeno-Zip14, purchased from Vector Biolabs). Primary myoblasts were infected with adenovirus expressing either GFP control (Adeno-GFP) or mouse Zip14 (Adeno-Zip14).
Muscle differentiation assays: Differentiation was initiated after adenoviral infection by switching the growth medium to differentiation medium (DMEM containing 2% horse serum and 5 μg/ml of insulin for C2C12 cells; DMEM containing 2% horse serum without insulin for primary myoblasts) the day after infection. Differentiation medium was changed at designated time-points.
as §2

[7] = Food and water intake, behavioral coordination, liver and kidney function with zinc-supplemented water; assay type: in vivo, mouse; conditions: C26m2 tumor-bearing mice with excess zinc supplementation
Protocol: as §3
Behavioral coordination tests in mice: Rotamex-5 (Columbus Instruments) with a rod diameter of 3 cm, was used for testing coordination in mice. In this setup, automatic fall detection is implemented within each lane by a series of photocells placed above the rotating rod. The speed of the rotating rod is programmed for either constant or accelerated modes. […] Latency to fall is detected with 0.1 second temporal resolution. […] For each mouse, an average of 3 runs are recorded, with 5 minutes rest between each run. The speed that the rod is spinning at when the mouse falls is measured in RPMs. The time it takes for the mouse to fall is measured in seconds. […] When the mice fall off the speed of the rod and amount of time the mouse was on the rod are recorded. […]

[8] = system: C2C12 cells; test: Cell viability assay (MTS, cleaved caspase-3); assay type: cell-based; conditions: Zip14-expressing cells; 50 μM ZnCl2 24 h
Protocol: Cell viability assay: Viability of C2C12 cells was determined by MTS assay (a cell proliferation assay based on a colorimetric method for quantification of viable cells in proliferation and cytotoxicity assay) using CellTiter 96® Aqueous One Solution Cell Proliferation Assay kit (purchased from Promega) containing tetrazolium compound. C2C12 cells infected with Adeno-GFP control or Adeno-Zip14 were plated in growth media and differentiated. Cells were treated with 50 μM of ZnCl2 for 24 h. Cell viability was measured by adding 100 μl of growth medium without phenol red to each well after aspirating media from the wells. 20 μl of CellTiter 96 AGueous One Solution Reagent was added to each well. After 1 hour of incubation at 37° C. in CO2 incubator, the amount of soluble formazan was determined by absorbance at 450 nm. Undifferentiated and differentiated C2C12 cells were collected for immunoblot analysis probing for cleaved-caspase-3 expression to assess cell-death. C2C12 cells treated with the indicated doses of doxorubicin (doxo) (purchased from Sigma) served as positive control for both types of viability assays.

[9] = Zip14-wild-type tumor-bearing mice (C26m2), 25 mM ZnSO4 drinking water
[10] = Zip14-expressing myotubes treated with zinc (50 μM) for 24 hours

Molecule: CC(C)(C)c1ccc(S(=O)(=O)/C=C/C#N)cc1 [Bay11-7085]
- Zip14 expression (TNFα-induced) ([1]; TNFα 50 ng/ml 3 hours, 10 μM inhibitor pretreated 1 hour, qRT-PCR): blocked
- Zip14 expression (TNFα-induced) ([2]; murine C2C12 cells, TNFα 50 ng/ml 3 hours, 10 μM inhibitor pretreated 1 hour, qRT-PCR): blocked

Molecule: CCN(CC)C(=S)[S-].O.O.O.[Na+] [DEDTC, Sodium diethyldithiocarbamate trihydrate]
- muscle wasting [3]: reduces

Molecule: CC(C)C[C@@H](C=O)NC(=O)[C@H](CC(C)C)NC(=O)[C@H](CC(C)C)NC(=O)OCc1ccccc1 [MG132, benzyloxycarbonylleucyl-leucyl-leucine aldehyde, reference compound] (Cbz-Leu-Leu-Leu-aldehyde)
- MyHC loss ([4]; Zip14-expressing 3-day differentiated C2C12, 50 μM ZnCl2 24 h, MG132 50 μM 3 hours prior to harvest): could be blocked

Molecule: NC(=O)c1ccc(-c2nc(-c3ccc4c(c3)OCO4)c(-c3ccccn3)[nH]2)cc1 [SB431542]
- Zip14 expression (TGFβ-induced) ([1]; TGFβ 10 ng/ml 9 hours, 10 μM inhibitor pretreated 1 hour, qRT-PCR): blocked
- Zip14 expression (TGFβ-induced) ([2]; murine C2C12 cells, TGFβ 10 ng/ml 9 hours, 10 μM inhibitor pretreated 1 hour, qRT-PCR): blocked

Molecule: [Zn] [zinc]
- body weight loss [5, 9]: substantial acceleration
- muscle atrophy [5, 9]: increase
- growth kinetics ([5]; absence of tumors, Zip14-wild-type and knockout mice, 25 mM ZnSO4 drinking water): no detrimental effect
- muscle wasting ([5]; tumor-bearing mice, zinc-enriched water (25 mM) or 1000 ppm zinc-supplemented diet): exacerbates
- differentiation of myoblasts (MyHC expression, morphology) ([6]; Zip14-expressing C2C12 and primary myoblasts, 50 μM ZnCl2): selectively blocked
- MyoD, Mef2c, and Myf5 transcription ([6]; Zip14-expressing C2C12 myoblasts, 50 μM ZnCl2 24 hours, qRT-PCR): transcriptional repression
- food or water intake, behavior, liver or kidney function [7]: No changes
- MyHC protein [4, 10]: striking loss
- skeletal actin, tropomyosin, troponin, desmin and myosin light chain (MyLC) protein [4, 10]: remained unchanged
- viability [8]: no loss

Molecule: TGFβ: recombinant mouse or human TGFβ1 cytokine from R&D Systems
- Zip14 expression after recombinant cytokine treatment [1]: significantly induced
- Zip14 expression after recombinant cytokine treatment [2]: significantly induced

Molecule: TNFα
- Zip14 expression after recombinant cytokine treatment [1]: significantly induced
- Zip14 expression after recombinant cytokine treatment [2]: significantly induced
